Data on 27 compounds can be found in patent US8163771B2, “11 β-HSD1 modulators” (Exelixis, Inc., priority 2008, dated 2012).

Molecules are shown by their SMILES.

The target in this test is T1, recombinant human 11 β-HSD1 (Homo sapiens, UniProt P28845).
T1 construct: made in house; host or cells: E. coli
T1 sequence (P28845 whole entry): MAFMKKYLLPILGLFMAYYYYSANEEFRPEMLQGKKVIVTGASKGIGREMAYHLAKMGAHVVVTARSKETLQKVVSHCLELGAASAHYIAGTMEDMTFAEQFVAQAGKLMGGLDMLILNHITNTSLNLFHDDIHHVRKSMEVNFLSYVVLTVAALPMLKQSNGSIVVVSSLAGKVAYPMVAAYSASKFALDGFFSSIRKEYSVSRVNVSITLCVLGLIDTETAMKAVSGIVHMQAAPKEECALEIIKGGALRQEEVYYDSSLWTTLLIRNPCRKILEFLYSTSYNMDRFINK
Description: 11 β-HSD1 SPA Assay (Scintillation Proximity Assay). In kind it is biochemical. The method, boiled down: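 Scintillation proximity read-out of cortisol formed from 40 nM [3H]cortisone by purified recombinant human enzyme (30-100 nM, E. coli) with 1 mM NADPH, pH7.4, 2 hours at room temperature; beads with cortisol antibody and glycyrrhetinic acid stop the reaction, read next day. IC50 derived from inhibition normalised to background and maximal wells.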
For orientation: SPA uses beads or plates that emit light when radiolabelled molecules are held near them.
With `CC(C)NC(=O)c1ccc(N2[C@@H]3CC[C@H]2C[C@@H](NC(=O)C(C)(C)Oc2ccc(F)c(Cl)c2)C3)nc1` [Example 95, 6-[3-endo-({2-[(3-chloro-4-fluorophenyl)oxy]-2-methylpropanoyl}amino)-8-azabicyclo[3.2.1]oct-8-yl]-N-(1-methylethyl)pyridine-3-carboxamide], the IC50 was less than 200 nM.
Regarding `CC(C)(Oc1cc(F)c(F)cc1Cl)C(=O)N[C@H]1C[C@H]2CC[C@@H](C1)N2c1ccc(C(N)=O)cn1` [Example 96, 6-[3-endo-({2-[(2-chloro-4,5-difluorophenyl)oxy]-2-methylpropanoyl}amino)-8-azabicyclo[3.2.1]oct-8-yl]pyridine-3-carboxamide], the IC50 is less than 200 nM.
Next, `CC(C)(Oc1ccc(F)c(Cl)c1Cl)C(=O)N[C@H]1C[C@H]2CC[C@@H](C1)N2c1ccc(C(N)=O)cn1` [Example 97, 6-[3-endo-({2-[(2,3-dichloro-4-fluorophenyl)oxy]-2-methylpropanoyl}amino)-8-azabicyclo[3.2.1]oct-8-yl]pyridine-3-carboxamide]: less than 200 nM; `CC(C)(Oc1cc(Cl)c(F)cc1Cl)C(=O)N[C@H]1C[C@H]2CC[C@@H](C1)N2c1ccc(C(=O)NCC(F)(F)F)cn1` [Example 98, 6-[3-endo-({2-[(2,5-dichloro-4-fluorophenyl)oxy]-2-methylpropanoyl}amino)-8-azabicyclo[3.2.1]oct-8-yl]-N-(2,2,2-trifluoroethyl)pyridine-3-carboxamide]: less than 200 nM; `CC(C)(Oc1cc(Cl)c(F)cc1Cl)C(=O)N[C@H]1C[C@H]2CC[C@@H](C1)N2c1ccc(C(N)=O)cn1` [Example 99, 6-[3-endo-({2-[(2,5-dichloro-4-fluorophenyl)oxy]-2-methylpropanoyl}amino)-8-azabicyclo[3.2.1]oct-8-yl]pyridine-3-carboxamide]: less than 200 nM.
Next, `CC(C)(Oc1ccc(F)c(Cl)c1Cl)C(=O)N[C@H]1C[C@H]2CC[C@@H](C1)N2c1ccc(C(=O)NCC(F)(F)F)cn1` [Example 100, 6-[3-endo-({2-[(2,3-dichloro-4-fluorophenyl)oxy]-2-methylpropanoyl}amino)-8-azabicyclo[3.2.1]oct-8-yl]-N-(2,2,2-trifluoroethyl)pyridine-3-carboxamide]: less than 200 nM.
Next, `CC(C)(Oc1ccc(Cl)cc1Cl)C(=O)N[C@H]1C[C@H]2CC[C@@H](C1)N2c1ccc(NS(C)(=O)=O)cn1` [Example 101, 2-[(2,4-dichlorophenyl)oxy]-2-methyl-N-(8-{5-[(methylsulfonyl)amino]pyridin-2-yl}-8-azabicyclo[3.2.1]oct-3-endo-yl)propanamide]: less than 200 nM.
As to `NC(=O)c1ccc(N2[C@@H]3CC[C@H]2C[C@@H](NC(=O)C2(c4cccc(Cl)c4)CC2)C3)nc1` [Example 102, 6-[3-endo-({[1-(3-chlorophenyl)cyclopropyl]carbonyl}amino)-8-azabicyclo[3.2.1]oct-8-yl]pyridine-3-carboxamide], the IC50 is less than 200 nM.
As to `NC(=O)c1ccc(N2[C@@H]3CC[C@H]2C[C@@H](NC(=O)C2(c4ccc(Cl)c(Cl)c4)CC2)C3)nc1` [Example 103, 6-[3-endo-({[1-(3,4-dichiorophenyl)cyclopropyl]carbonyl}amino)-8-azabicyclo[3.2.1]oct-8-yl]pyridine-3-carboxamide], the concentration for half-maximal inhibition (IC50) was less than 200 nM.
Next, `NC(=O)c1ccc(N2[C@@H]3CC[C@H]2C[C@@H](NC(=O)C2(c4cccc(F)c4)CC2)C3)nc1` [Example 104, 6-[3-endo-({[1-(3-fluorophenyl)cyclopropyl]carbonyl}amino)-8-azabicyclo[3.2.1]oct-8-yl]pyridine-3-carboxamide]: less than 200 nM; `CC(C)(Oc1ccc(Cl)cc1F)C(=O)N[C@H]1C[C@H]2CC[C@@H](C1)N2c1ccc(C(=O)NCC(F)(F)F)cn1` [Example 105, 6-[3-endo-({2-[(4-chloro-2-fluorophenyl)oxy]-2-methylpropanoyl}amino)-8-azabicyclo[3.2.1]oct-8-yl]-N-(2,2,2-trifluoroethyl)pyridine-3-carboxamide]: less than 200 nM.
In the case of `CC(C)(Oc1ccc(Cl)cc1Cl)C(=O)N[C@H]1C[C@H]2CC[C@@H](C1)N2c1cccnc1` [Example 106, 2-[(2,4-dichlorophenyl)oxy]-2-methyl-N-(8-pyridin-3-yl-8-azabicyclo[3.2.1]oct-3-endo-yl)propanamide], the IC50 was less than 200 nM.
Next, `CC(C)(Oc1ncc(Cl)cc1Cl)C(=O)N[C@H]1C[C@H]2CC[C@@H](C1)N2c1ccc(C(=O)NCC(F)(F)F)cn1` [Example 107, 6-[3-endo-({2-[(3,5-dichloropyridin-2-yl)oxy]-2-methylpropanoyl}amino)-8-azabicyclo[3.2.1]oct-8-yl]-N-(2,2,2-trifluoroethyl)pyridine-3-carboxamide]: less than 200 nM.
On to `CC(C)(Oc1ccc(Cl)cn1)C(=O)N[C@H]1C[C@H]2CC[C@@H](C1)N2c1ccc(C(=O)NCC(F)(F)F)cn1` [Example 108, 6-[3-endo-({2-[(5-chloropyridin-2-yl)oxy]-2-methylpropanoyl}amino)-8-azabicycio[3.2.1]oct-8-yl]-N-(2,2,2-trifluoroethyl)pyridine-3-carboxamide], for which the IC50 is less than 200 nM.
Take `CC(C)(Oc1ccc(F)cn1)C(=O)N[C@H]1C[C@H]2CC[C@@H](C1)N2c1ccc(C(=O)NCC(F)(F)F)cn1` [Example 109, 6-[3-endo-({2-[(5-fluoropyridin-2-yl)oxy]-2-methylpropanoyl}amino)-8-azabicyclo[3.2.1]oct-8-yl]-N-(2,2,2-trifluoroethyl)pyridine-3-carboxamide]: the IC50 is less than 200 nM.
Next, `CC(C)(Oc1ccc(Cl)cc1Cl)C(=O)N[C@H]1C[C@H]2CC[C@@H](C1)N2c1ccc(C(=O)NCC(F)(F)F)cc1` [Example 110, 4-[3-endo-({2-[(2,4-dichlorophenyl)oxy]-2-methylpropanoyl}amino)-8-azabicyclo[3.2.1]oct-8-yl]-N-(2,2,2-trifluoroethyl)benzamide]: less than 200 nM; `CC(C)(Oc1ccc(C(F)(F)F)cc1)C(=O)N[C@H]1C[C@H]2CC[C@@H](C1)N2c1ccc(C(=O)NCC(F)(F)F)cn1` [Example 111, 6-{3-endo-[(2-methyl-2-{[4-(trifluoromethyl)phenyl]oxy}propanoyl)amino]-8-azabicyclo[3.2.1]oct-8-yl}-N-(2,2,2-trifluoroethyl)pyridine-3-carboxamide]: less than 200 nM.
Next, `CC(C)(Oc1ccccc1C(F)(F)F)C(=O)N[C@H]1C[C@H]2CC[C@@H](C1)N2c1ccc(C(=O)NCC(F)(F)F)cn1` [Example 112, 6-{3-endo-[(2-methyl-2-{[2-(trifluoromethyl)phenyl]oxy}propanoyl)amino]-8-azabicyclo[3.2.1]oct-8-yl}-N-(2,2,2-trifluoroethyl)pyridine-3-carboxamide]: less than 200 nM; `CC(C)(Oc1ccccc1C(F)(F)F)C(=O)N[C@H]1C[C@H]2CC[C@@H](C1)N2c1ccc(C(=O)NC2CC2)cn1` [Example 113, N-cyclopropyl-6-{3-endo-[(2-methyl-2-{[2-(trifluoromethyl)phenyl]oxy}propanoyl)amino]-8-azabicyclo[3.2.1]oct-8-yl}pyridine-3-carboxamide]: less than 200 nM.
Next, `CC(C)(Oc1ccc(Cl)cc1Cl)C(=O)N[C@H]1C[C@H]2CC[C@@H](C1)N2c1ccc(-c2nnn[nH]2)cn1` [Example 114, 2-[(2,4-dichlorophenyl)oxy]-2-methyl-N-{8-[5-(1H-tetrazol-5-yl)pyridin-2-yl]-8-azabicyclo[3.2.1]oct-3-endo-yl}propanamide]: less than 200 nM.
With `CC(=O)Nc1ccc(N2[C@@H]3CC[C@H]2C[C@@H](NC(=O)C(C)(C)Oc2ccc(Cl)cc2Cl)C3)cc1` [Example 115, N-{8-[4-(acetylamino)phenyl]-8-azabicyclo[3.2.1]oct-3-endo-yl}-2-[(2,4-dichlorophenyl)oxy]-2-methylpropanamide], the 50% inhibitory concentration (IC50) was less than 200 nM.
Next, `CC(C)(Oc1ccc(Cl)cc1Cl)C(=O)N[C@H]1C[C@H]2CC[C@@H](C1)N2c1ccc(NC(=O)C(F)(F)F)cc1` [Example 116, 2-[(2,4-dichlorophenyl)oxy]-2-methyl-N-(8-{4-[(trifluoroacetyl)amino]phenyl}-8-azabicyclo[3.2.1]oct-3-endo-yl)propanamide]: less than 200 nM; `CC(C)(Oc1ccc(Cl)cc1Cl)C(=O)N[C@H]1C[C@H]2CC[C@@H](C1)N2c1ccc(C(=O)NCC(F)(F)F)cc1Cl` [Example 117, 3-chloro-4-[3-endo-({2-[(2,4-dichlorophenyl)oxy]-2-methylpropanoyl}amino)-8-azabicyclo[3.2.1]oct-8-yl]-N-(2,2,2-trifluoroethyl)benzamide]: less than 200 nM.
Next, `O=C(NC1CC1)c1ccc(N2[C@@H]3CC[C@H]2C[C@@H](NC(=O)C2(c4ccc(Cl)cc4)CC2)C3)c(Cl)c1` [Example 118, 3-chloro-4-[3-endo-({[1-(4-chlorophenyl)cyclopropyl]carbonyl}amino)-8-azabicyclo[3.2.1]oct-8-yl]-N-cyclopropylbenzamide]: less than 200 nM; `O=C(NC1CC1)c1ccc(N2[C@@H]3CC[C@H]2C[C@@H](NC(=O)C2(c4ccc(Cl)cc4)CC2)C3)cc1F` [Example 119, 4-[3-endo-({[1-(4-chlorophenyl)cyclopropyl]carbonyl}amino)-8-azabicyclo[3.2.1]oct-8-yl]-N-cyclopropyl-2-fluorobenzamide]: less than 200 nM; `CC(C)(Oc1ccc(Cl)cc1Cl)C(=O)N[C@H]1C[C@H]2CC[C@@H](C1)N2c1ccc(S(C)(=O)=O)cc1` [Example 120, 2-[(2,4-dichlorophenyl)oxy]-2-methyl-N-{8-[4-(methylsulfonyl)phenyl]-8-azabicyclo[3.2.1]oct-3-endo-yl}propanamide]: less than 200 nM.
Next, `O=C(NCC(F)(F)F)c1ccc(N2[C@@H]3CC[C@H]2C[C@@H](NC(=O)C2(c4ccc(F)c(F)c4)CC2)C3)nc1` [Example 121, 6-[3-endo-({[1-(3,4-difluorophenyl)cyclopropyl]carbonyl}amino)-8-azabicyclo[3.2.1]oct-8-yl]-N-(2,2,2-trifluoroethyl)pyridine-3-carboxamide]: less than 200 nM.

One may read the IC50 as the concentration that gives 50% inhibition.
